According to BindingDB's records for doi:10.1124/jpet.302.1.359 (Bayer, 2002):

Legend:
Cannabinoid receptor 1 = Cannabinoid receptor 1 (Homo sapiens, UniProt P21554)
Cannabinoid receptor 2 = Cannabinoid receptor 2 (Homo sapiens, UniProt P34972)
Chain of Cannabinoid receptor 2 (P34972 whole entry): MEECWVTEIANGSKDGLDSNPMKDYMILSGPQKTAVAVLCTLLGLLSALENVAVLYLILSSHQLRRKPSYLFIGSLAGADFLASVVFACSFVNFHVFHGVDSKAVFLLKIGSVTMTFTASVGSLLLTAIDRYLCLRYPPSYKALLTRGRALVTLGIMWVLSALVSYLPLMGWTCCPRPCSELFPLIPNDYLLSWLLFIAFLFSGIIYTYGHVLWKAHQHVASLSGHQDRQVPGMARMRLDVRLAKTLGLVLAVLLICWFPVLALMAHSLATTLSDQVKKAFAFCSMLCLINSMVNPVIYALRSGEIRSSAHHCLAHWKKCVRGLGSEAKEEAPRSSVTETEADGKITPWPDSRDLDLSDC

Chain of Cannabinoid receptor 1 (P21554 whole entry): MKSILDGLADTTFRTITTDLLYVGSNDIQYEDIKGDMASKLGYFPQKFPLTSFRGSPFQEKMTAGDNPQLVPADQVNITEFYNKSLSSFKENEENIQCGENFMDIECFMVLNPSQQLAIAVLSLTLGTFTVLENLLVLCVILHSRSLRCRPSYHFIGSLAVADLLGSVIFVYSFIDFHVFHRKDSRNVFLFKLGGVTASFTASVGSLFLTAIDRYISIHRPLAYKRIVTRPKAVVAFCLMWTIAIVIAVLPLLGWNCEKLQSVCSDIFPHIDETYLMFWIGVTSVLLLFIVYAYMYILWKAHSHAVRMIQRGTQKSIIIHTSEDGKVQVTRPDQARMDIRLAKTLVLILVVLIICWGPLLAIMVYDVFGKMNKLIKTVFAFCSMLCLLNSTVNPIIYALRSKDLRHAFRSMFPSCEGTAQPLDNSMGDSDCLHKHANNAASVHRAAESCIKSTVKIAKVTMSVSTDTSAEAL

Structure (SMILES): CCCCCCC(C)(C)c1cc(O)c2c(c1)OC(C)(C)[C@@H]1CC=C(CO)CC21 (stereo partly drawn) [(R)-3-(1,1-Dimethyl-heptyl)-9-hydroxymethyl-6,6-dimethyl-6a,7,10,10a-tetrahydro-6H-benzo[c]chromen-1-ol]
- Ki (Cannabinoid receptor 1): 0.41 nM

Structure (SMILES): O=S(=O)(CCCC(F)(F)F)Oc1cccc(Oc2ccc(O)c3c2CC(CO)=C3)c1 [KN 38-7271]
- Ki (Cannabinoid receptor 2): 5.96 nM
